Molecular target: T1, phosphatase ABI1 via the co-regulator RCAR11/PYR1 (Arabidopsis thaliana, UniProt O49686+P49597)
T1 sequence (O49686 1-191): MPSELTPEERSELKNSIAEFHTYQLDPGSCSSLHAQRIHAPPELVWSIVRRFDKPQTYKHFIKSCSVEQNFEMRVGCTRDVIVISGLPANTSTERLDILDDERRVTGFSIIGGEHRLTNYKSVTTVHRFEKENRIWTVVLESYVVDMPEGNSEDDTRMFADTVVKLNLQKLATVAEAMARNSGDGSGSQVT
T1 sequence (P49597 1-434): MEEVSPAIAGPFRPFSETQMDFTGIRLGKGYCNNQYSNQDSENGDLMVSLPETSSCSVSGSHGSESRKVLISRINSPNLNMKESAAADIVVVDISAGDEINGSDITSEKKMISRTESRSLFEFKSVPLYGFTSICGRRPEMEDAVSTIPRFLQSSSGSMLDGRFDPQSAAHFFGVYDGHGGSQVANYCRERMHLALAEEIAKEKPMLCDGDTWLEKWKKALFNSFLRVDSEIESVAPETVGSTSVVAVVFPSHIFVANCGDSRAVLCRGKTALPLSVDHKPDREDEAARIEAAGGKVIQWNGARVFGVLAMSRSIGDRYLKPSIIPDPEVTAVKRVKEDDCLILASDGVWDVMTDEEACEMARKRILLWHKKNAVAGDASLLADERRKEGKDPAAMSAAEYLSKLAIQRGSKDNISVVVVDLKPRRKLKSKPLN
Assay: In vitro inhibition of the phosphatase ABI1 via the co-regulator RCAR11/PYR1, MUP dephosphorylation
Type: biochemical
Set-up: dose or concentration left out as unconfirmed
Conditions: in a solution of DMSO and water; fluorescence at 460 nm
Procedure, shortened: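 Arabidopsis ABI1 (0.15 μg/well) with RCAR11/PYR1 (0.30 μg/well) in Tris-HCl pH 8, NaCl, MnCl2, DTT, Tween20; MUP substrate, 20 min at 35 °C, fluorescence ex 340/em 460 nm. Compounds tested at 5 mM in DMSO/water, optionally pre-treated with porcine liver esterase; inhibition banded ≥90/70/50/30%.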

## COC(=O)CCN1C(=O)CCc2cc(NS(=O)(=O)Cc3ccc(F)cc3)ccc21 [A51-158]
  ABI1 inhibition: +++ (90%>inhibition≧70%)
